One data set deals with tyrosinase (Sigma Co.). In words: Measurement of tyrosinase activity inhibition (L-DOPA substrate, absorbance at 417 nm). The data set is classed as biochemical. The following applies: substrate 2 mM L-DOPA, phosphate-potassium buffer pH 6.8, tyrosinase 0.5 mg/ml, absorbance 417 nm; read-out: IC50, concentration of tyrosinase activity inhibitor when the tyrosinase activity inhibition (%) is 50%. Here is the method:
The measurement was conducted by the following method.
The reaction reagent used are as follows:
Substrate: 2 mM L-DOPA (Wako Junyaku Co.)
Buffer: 0.1 mM phosphate-potassium solution (pH 6.8)
Inhibitor: 1% solution of the compound of the formula (I), 4-ethylresorcinol, compound of the formula (II), 5-methylresorcinol and compound of the formula (III), 6,6'-di-n-propyl-2,2',4,4'-tetrahydroxydiphenylmethane
Enzyme: tyrosinase (Sigma Co.), 0.5 mg/ml
(2) Measurement of tyrosinase activity inhibition %
In the case of measuring tyrosinase activity inhibition %, a sample solution (No.1 to No.3) was prepared in a spectrophotometric cell (1 ml), by mixing each ingredient in the following formulation shown in Table 1. […]
Formulation of sample solution (ml)
An enzyme solution (0.20 ml) was added to the cell. Three minutes later, the measurement of temporal changes of an absorbance (417 nm) by means of a spectrophotometer had started. The inhibition % was calculated based on the following equation:
Inhibition %=[1-(Ab.3-Ab.1/Ab.2-Ab.1)]×100

For data set [1] the following is noted: prior-art statement, no test described; cited from earlier work.
The test system of another data set is tyrosinase. The following applies: as described in Japanese Patent Kokai No. 4-169515; cited from earlier work.

Consider 15 compounds from patent US5399785A, “Tyrosinase activity inhibitor” (Nippon Paint Co., Ltd., priority 1992, dated 1995).

With `CCCc1cc(O)cc(O)c1Cc1c(O)cc(O)cc1CCC` [Example 3, 6,6'-di-n-propyl-2,2',4,4'-tetrahydroxydiphenylmethane], the IC50 at tyrosinase (Sigma Co.) was determined as 25 µM.

As for `OC[C@H]1O[C@@H](Oc2ccc(O)cc2)[C@H](O)[C@@H](O)[C@@H]1O` [arbutin], the toxicity entry in data set [1] is reported as “has toxicity”.

As for `CCc1ccc(O)cc1O` [drawing 4 Ethyl, 4-ethylresorcinol], the IC50 at tyrosinase (Sigma Co.) was determined as 2 µM.

Take `Cc1ccc(O)cc1O` [drawing 4 Methyl]: at tyrosinase (Sigma Co.), the IC50 is 8 µM.

In the case of `CCCCCCCc1ccc(O)cc1O` [drawing 4 n-Heptyl], the IC50 at tyrosinase (Sigma Co.) was found to be 0.7 µM.

Turning to `CCCCCCCCCc1ccc(O)cc1O` [drawing 4 n-Nonyl], the IC50 on tyrosinase (Sigma Co.) is 0.9 µM.

As for `CCCCCc1ccc(O)cc1O` [drawing 4 n-Pentyl], at tyrosinase (Sigma Co.), the IC50 was 0.8 µM.

Take `CCCc1ccc(O)cc1O` [drawing 4 n-Propyl]: the IC50 at tyrosinase (Sigma Co.) worked out at 0.9 µM.

In the case of `CCc1cc(O)cc(O)c1` [drawing 5 Ethyl], the IC50 on tyrosinase (Sigma Co.) worked out at 700 µM.

With `Cc1cc(O)cc(O)c1` [drawing 5 Methyl, 5-methylresorcinol], the IC50 at tyrosinase (Sigma Co.) stood at 5000 µM.

Consider `CCCCCCCc1cc(O)cc(O)c1` [drawing 5 n-Heptyl], for which, on tyrosinase (Sigma Co.), the IC50 was found to be 200 µM.

Consider `CCCCCCCCCc1cc(O)cc(O)c1` [drawing 5 n-Nonyl], for which the IC50 at tyrosinase (Sigma Co.) was found to be 200 µM.

Regarding `CCCCCc1cc(O)cc(O)c1` [drawing 5 n-Pentyl], at tyrosinase (Sigma Co.), the IC50 came out at 200 µM.

Consider `CCCc1cc(O)cc(O)c1` [drawing 5 n-Propyl], for which, at tyrosinase (Sigma Co.), the IC50 stood at 500 µM.

In the case of `NC[C@H]1CC[C@H](C(=O)O)CC1` [tranexamic acid], the “tyrosinase activity inhibition effect” value in the data set with tyrosinase is “low tyrosinase activity inhibition effect”.
